Results: patent US12091425B2 (AMGEN INC., priority 2016, dated 2024)

Columns and labels:
[1] = molecular target: T1, Mcl-1/Bim interaction, recombinant human Mcl-1 (171-327) (Homo sapiens, UniProt Q07820); assay: Cell free Mcl-1: Bim Affinity Assay (Mcl-1 HTRF); format: binding
T1 construct: made in house
How it was run: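 Biotin-Bim(51-76) peptide, TR-FRET readout, overnight incubation; IC50 from duplicate competition curves, 4-parameter fit.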

[2] = system: OPM-2 human multiple myeloma cell line; assay: Cell Viability Assay (OPM-2 10 FBS); format: cell-based; conditions: OPM-2 cells, CellTiter-Glo
How it was run: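 Plated at 3000 cells/well in 10% FBS complete medium, the cells received a serial compound dilution series and incubated 16 h at 37 °C with 5% CO2. CellTiter-Glo was then added; IC50 values were fitted with a logistic 4-parameter model.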

[3] = TR-FRET, 0.1 nM Mcl-1 (171-327), 0.05 nM biotin-Bim (51-76)
[4] = Homo sapiens, OPM-2, 16 h, 16 h
[5] = Homo sapiens, OPM-2, 16 h, 16 h incubation
[6] = cell free Mcl-1:Bim TR-FRET, recombinant human Mcl-1 (171-327)

T1 sequence (Q07820 171-327): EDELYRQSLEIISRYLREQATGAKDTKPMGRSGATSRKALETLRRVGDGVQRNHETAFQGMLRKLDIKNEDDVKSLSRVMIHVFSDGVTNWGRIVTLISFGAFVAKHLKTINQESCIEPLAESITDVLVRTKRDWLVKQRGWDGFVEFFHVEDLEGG

| Structure (SMILES) | IC50 [1, 3] [nM] | IC50 [2, 4] [nM] | IC50 ([2]; 16 h) [nM] | further results |
| --- | --- | --- | --- | --- |
| COCCO[C@H]1/C=C/CCN(CCOC)S(=O)(=O)NC(=O)c2ccc3c(c2)N(C[C@@H]2CC[C@H]21)C[C@@]1(CCCc2cc(Cl)ccc21)CO3 [Example 48, (1S,3′R,6′R,7′S,8′E)-6-chloro-7′-(2-methoxyethoxy)-12′-(2-methoxyethyl)-3,4-dihydro-2H,15′H-spiro[naphthalene-1,22′-[20]oxa[13]thia[1,12,14]triazatetracyclo[14.7.2.0^3,6.0^19,24]pentacosa[8,16,18,24]tetraen]-15′-one 13′,13′-dioxide] | 0.562 | 524 | – | – |
| CCOC(=O)CO[C@H]1/C=C/[C@H](C)[C@H](C)[C@@H](C)S(=O)(=O)NC(=O)c2ccc3c(c2)N(C[C@@H]2CC[C@H]21)C[C@@]1(CCCc2cc(Cl)ccc21)CO3 [Example 1050, ethyl (((1S,3′R,6′R,7′S,8′E,10′S,11′S,12′R)-6-chloro-10′,11′,12′-trimethyl-13′,13′-dioxido-15′-oxo-3,4-dihydro-2H-spiro[naphthalene-1,22′-[20]oxa[13]thia[1,14]diazatetracyclo[14.7.2.0^3,6.0^19,24]pentacosa [8,16,18,24]tetraen]-7′-yl)oxy)acetate] | 0.589 | – | – | IC50 [2, 5]: 288 nM |
| O=C1NS(=O)(=O)C2CC2CC=CC(O)C2CCC2CN2CC3(CCCc4cc(Cl)ccc43)COc3ccc1cc32 (single isomer, unassigned) [Example 793] | – | – | 536 | IC50 [1, 6]: 0.44 nM |
| COCCOCCOCCO[C@H]1/C=C/C[C@H](C)[C@@H](C)S(=O)(=O)NC(=O)c2ccc3c(c2)N(C[C@@H]2CC[C@H]21)C[C@@]1(CCCc2cc(Cl)ccc21)CO3 [Example 378, (1S,3′R,6′R,7′S,8′E,11′S,12′R)-6-chloro-7′-(2-(2-(2-methoxyethoxy)ethoxy)ethoxy)-11′,12′-dimethyl-3,4-dihydro-2H,15′H-spiro[naphthalene-1,22′-[20]oxa[13]thia[1,14]diazatetracyclo[14.7.2.0^3,6.0^19,24]pentacosa[8,16,18,24]tetraen]-15′-one 13′,13′-dioxide] | 0.24 | 140 | – | – |
| C[C@H]1C/C=C/[C@H](O)[C@@H]2CC[C@H]2CN2C[C@@]3(CCCc4cc(Cl)ccc43)COc3ccc(cc32)C(=O)NS(=O)(=O)[C@@H]1c1ccccc1 (single isomer, unassigned) [Example 654] | – | – | 3510 | IC50 [1, 6]: 7.6 nM |
| C[C@@H]1[C@@H](C)/C=C/C[C@H](OCCN2CCOCC2)[C@@H]2CC[C@H]2CN2C[C@@]3(CCCc4cc(Cl)ccc43)COc3ccc(cc32)C(=O)NS1(=O)=O [Example 16, (1S,3′R,6′R,7′S,9′E,11′S,12′R)-6-chloro-11′,12′-dimethyl-7′-(2-(4-morpholinyl)ethoxy)-3,4-dihydro-2H,15′H-spiro[naphthalene-1,22′-[20]oxa[13]thia[1,14]diazatetracyclo[14.7.2.0^3,6.0^19,24]pentacosa [9,16,18,24]tetraen]-15′-one 13′,13′-dioxide] | 2.21 | – | – | IC50 ([2]; Homo sapiens, 16 h): 3580 nM |
| CC(=O)N1C[C@H]2C/C=C/[C@H](O)[C@@H]3CC[C@H]3CN3C[C@@]4(CCCc5cc(Cl)ccc54)COc4ccc(cc43)C(=O)NS(=O)(=O)[C@@H]2C1 (single isomer, unassigned) [Example 338] | 0.241 | – | 5620 | – |
| O=C1NS(=O)(=O)CCC/C=C/[C@@H](OCCN2CCOCC2)[C@@H]2CC[C@H]2CN2C[C@@]3(CCCc4cc(Cl)ccc43)COc3ccc1cc32 [Example 213, (1S,3′R,6′R,7′R,8′E)-6-chloro-7′-(2-(4-morpholinyl)ethoxy)-3,4-dihydro-2H,15′H-spiro[naphthalene-1,22′-[20]oxa[13]thia[1,14]diazatetracyclo[14.7.2.0^3,6.0^19,24]pentacosa [8,16,18,24]tetraen]-15′-one 13′,13′-dioxide] | 1.08 | 835 | – | – |
| COC(C)COC1C=CCC(C)C(C)S(=O)(=O)NC(=O)c2ccc3c(c2)N(CC2CCC21)CC1(CCCc2cc(Cl)ccc21)CO3 (mixture of isomers) [Example 519] | – | – | 339 | IC50 [1, 6]: 1.44 nM |
| CO[C@H]1/C=C/CC[C@@H](CC(C)(C)OC)S(=O)(=O)NC(=O)c2ccc3c(c2)N(C[C@@H]2CC[C@H]21)C[C@@]1(CCCc2cc(Cl)ccc21)CO3 (single isomer, unassigned) [Example 615] | – | – | 643 | IC50 [1, 6]: 0.696 nM |
| CO[C@H]1/C=C/[C@H](O)[C@@H]2CC[C@H]2CN2C[C@@]3(CCCc4cc(Cl)ccc43)COc3ccc(cc32)C(=O)NS(=O)(=O)[C@H](C)C1 (single isomer, unassigned) [Example 487] | – | – | 5800 | IC50 [1, 6]: 1.05 nM |
| COCCO[C@H]1/C=C/C[C@H](C)N(CCOC)S(=O)(=O)NC(=O)c2ccc3c(c2)N(C[C@@H]2CC[C@H]21)C[C@@]1(CCCc2cc(Cl)ccc21)CO3 (single isomer, unassigned) [Example 69] | 0.529 | 276 | – | – |
| CCOC[C@@H]1[C@@H](C)C/C=C/[C@H](OC)[C@@H]2CC[C@H]2CN2C[C@@]3(CCCc4cc(Cl)ccc43)COc3ccc(cc32)C(=O)NS1(=O)=O (single isomer, unassigned) [Example 469] | 0.973 | – | 334 | – |
| C[C@@H]1[C@@H](C)C[C@H](CC(=O)N(C)C)/C=C/[C@@H]2CC[C@H]2CN2C[C@@]3(CCCc4cc(Cl)ccc43)COc3ccc(cc32)C(=O)NS1(=O)=O [Example 1072, 2-((1S,3′R,6′S,7′E,9′R,11′S,12′R)-6-chloro-11′,12′-dimethyl-13′,13′-dioxido-15′-oxo-3,4-dihydro-2H-spiro[naphthalene-1,22′-[20]oxa[13]thia[1,14]diazatetracyclo[14.7.2.0^3,6.0^19,24]pentacosa [7,16,18,24]tetraen]-9′-yl)-N,N-dimethylacetamide] | 1.36 | – | – | IC50 [2, 5]: 1510 nM |

More lines, main results first:

| IC50 [1, 3] [nM] | IC50 [2, 4] [nM] | Structure (SMILES) | IC50 ([2]; 16 h) [nM] | further results |
| --- | --- | --- | --- | --- |
| 0.46 | 572 | CO[C@H]1/C=C/C[C@H]2CC[C@@H]2S(=O)(=O)NC(=O)c2ccc3c(c2)N(C[C@@H]2CC[C@H]21)C[C@@]1(CCCc2cc(Cl)ccc21)CO3 [Example 95, (1S,3′R,6′R,7′S,8′E,11′R,14′S)-6-chloro-7′-methoxy-3,4-dihydro-2H,17′H-spiro[naphthalene-1,24′-[22]oxa[15]thia[1,16]diazapentacyclo[16.7.2.0^3,6.0^11,14.0^21,26]heptacosa[8,18,20,26]tetraen]-17′-one 15′,15′-dioxide] | – | – |
| 1.51 | 450 | C[C@H]1C/C=C/[C@H](OCCN2CCOCC2)[C@@H]2CC[C@H]2CN2C[C@@]3(CCCc4cc(Cl)ccc43)COc3ccc(cc32)C(=O)NS(=O)(=O)N1 [Example 67, (1S,3′R,6′R,7′S,8′E,11′S)-6-chloro-11′-methyl-7′-(2-(4-morpholinyl)ethoxy)-3,4-dihydro-2H,15′H-spiro[naphthalene-1,22′-[20]oxa[13]thia[1,12,14]triazatetracyclo[14.7.2.0^3,6.0^19,24]pentacosa[8,16,18,24]tetraen]-15′-one 13′,13′-dioxide] | – | – |
| – | 7640 | CC(C)CC1CC(C)C=CC(O)C2CCC2CN2CC3(CCCc4cc(Cl)ccc43)COc3ccc(cc32)C(=O)NS1(=O)=O (single isomer, unassigned) [Example 482] | – | IC50 [1, 6]: 7.52 nM |
| 6.25 | 2380 | C[C@@H]1C/C=C/[C@H](O)[C@@H]2CC[C@H]2CN2C[C@@]3(CCCc4cc(Cl)ccc43)COc3ccc(cc32)C(=O)NS(=O)(=O)N1C[C@H]1CCCO1 [Example 55, (1S,3′R,6′R,7′S,8′E,11R)-6-chloro-7′-hydroxy-11′-methyl-12′-((2R)-tetrahydro-2-furanylmethyl)-3,4-dihydro-2H,15′H-spiro[naphthalene-1,22′-[20]oxa[13]thia[1,12,14]triazatetracyclo[14.7.2.0^3,6.0^19,24]pentacosa[8,16,18,24]tetraen]-15′-one 13′,13′-dioxide] | – | – |
| 6.86 | 3560 | CC(=O)O[C@H]1/C=C/C[C@H]2CCCN2S(=O)(=O)NC(=O)c2ccc3c(c2)N(C[C@@H]2CC[C@H]21)C[C@@]1(CCCc2cc(Cl)ccc21)CO3 (single isomer, unassigned) [Example 348] | – | – |
| 0.396 | – | CC1CC(C)CS(=O)(=O)NC(=O)c2ccc3c(c2)N(CC2CCC2C(O)C1)CC1(CCCc2cc(Cl)ccc21)CO3 (single isomer, unassigned) [Example 272] | 1190 | – |
| 5.25 | 5370 | CCO[C@@H]1/C=C/CCCS(=O)(=O)NC(=O)c2ccc3c(c2)N(C[C@@H]2CC[C@H]21)C[C@@]1(CCCc2cc(Cl)ccc21)CO3 [Example 209, (1S,3′R,6′R,7′R,8′E)-6-chloro-7′-ethoxy-3,4-dihydro-2H,15′H-spiro[naphthalene-1,22′-[20]oxa[13]thia[1,14]diazatetracyclo[14.7.2.0^3,6.0^19,24]pentacosa [8,16,18,24]tetraen]-15′-one 13′,13′-dioxide] | – | – |
| 0.494 | 1220 | O=C1NS(=O)(=O)NCC/C=C/[C@H](O)[C@@H]2CC[C@H]2CN2C[C@@]3(CCCc4cc(Cl)ccc43)COc3ccc1cc32 [Example 19, (1S,3′R,6′R,7′S,8′E)-6-chloro-7′-hydroxy-3,4-dihydro-2H,15′H-spiro[naphthalene-1,22′-[20]oxa[13]thia[1,12,14]triazatetracyclo[14.7.2.0^3,6.0^19,24]pentacosa[8,16,18,24]tetraen]-15′-one 13,13′ dioxide] | – | – |
